Patent US20140228381A1, “METHODS OF CONTROLLING INSECTS OF THE FAMILY CURCOLIONIDAE” (SYNGENTA PARTICIPATIONS AG, priority 2011, published 2014)

Assays:
Assay type in all cases: in vivo
Heliothis virescens = test: BP80 Heliothis virescens ovo-larvicide, feeding/contact activity, curative; details: eggs on artificial diet, 5 days incubation
Experimental: (§1) BP80s (break points for 80% mortality) were obtained for Pyrifluquinazon and Flonicamid against the following pests: Heliothis virescens, Plutella xylostella, Tetranychus urticae and Cydia pomonella. The specific method used for each pest is outlined below. Heliothis virescens (Tobacco Budworm): ovo-larvicide, feeding/contact activity, curative Eggs (0-24 h old) are placed in a 24-well microtiter plate on artificial diet and treated with test solutions by pipetting. After an incubation period of 5 days, samples are checked for egg mortality and larval mortality. Selectable application rates: 500-0.05 ppm Plutella xylostella (Diamondback Moth): larvicide, feeding/residual contact activity, preventative 24-well microtiter plates with artificial diet are treated with test solutions by pipetting. After drying, the plates are infested with L2 larvae (10-15 per well). After an incubation period of 5 days, samples are checked for larval mortality. Selectable application rates: 500-0.05 ppm Tetranychus urticae (Two-Spotted Spider Mite): Mixed Population feeding/contact activity, preventative Bean leaf discs on agar in 24-well microtiter plates are sprayed with test solutions. After drying, the leaf discs are infested with mite populations of mixed ages. 8 days later, discs are checked for egg mortality, larval mortality, and adult mortality. […]

Plutella xylostella = test: BP80 Plutella xylostella larvicide, feeding/residual contact activity, preventative; details: L2 larvae on artificial diet, 5 days incubation
Experimental: as §1

Tetranychus urticae = test: BP80 Tetranychus urticae mixed population, feeding/contact activity, preventative; details: bean leaf discs, mixed ages, 8 days
Experimental: as §1

Cydia pomonella = test: BP80 Cydia pomonella larvicide, contact/feeding activity, preventative; details: L1 larvae on diet cubes, 14 days after infestation
Experimental: as §1

Anthonomus grandis [1] = test: B.2 field trial, insecticidal activity against Anthonomus grandis in cotton; details: 75 g ai/ha, 50% WG
Experimental: Trials were carried out in a randomized complete block design, each comprising of 4 replicates, plot size of 30 m^2. Application was carried out with a pressurized knap sack sprayer. 200 liters of spray volume was applied per ha. 4 applications were carried out in 5 days interval. Flonicamid was applied as a 50% WG Efficacy was evaluated 2 days after 2nd application and 4 days after 4th application. 50 squares were counted per plot and the % reduction of damaged squares in comparison to untreated control was calculated after the ABBOTT formula.

Anthonomus grandis [2] = test: B.3 field trial, insecticidal activity against Anthonomus grandis in cotton; details: 75 g ai/ha, 50% WG
Experimental: (§2) Trials were carried out in a randomized complete block design, each comprising of 4 replicates and a plot size of 30 m^2. Application was carried out with a pressurized knap sack sprayer. 200 liters of spray volume was applied per ha. 3 applications were carried out in 5 days interval, the first application at BBCH 51. Flonicamid was applied as a 50% WG. Efficacy was evaluated 2 days after 2nd and 5 days after 3rd application. 50 squares were counted per plot and the percentage reduction of damaged squares in comparison to untreated control was calculated after the ABBOTT formula.

Anthonomus grandis [3] = test: B.4 field trial, insecticidal activity against Anthonomus grandis in cotton
Experimental: as §2, with “4 replicates,” for “4 replicates and a”, “ha. 4” for “ha. 3”, “50% WG, and Pyrifluquinaon as a 10% WP.” for “50% WG.”, “after 4th” for “after 2nd”, “and 7” for “and 5”, “after 4th” for “after 3rd”

Anthonomus adults = test: B.5 immobility effect, contact spray on Anthonomus adults; details: 300 ppm contact spray; for no of insects at infestation site (A) / no of insects capable of leaving the infestation site (B) + (C) / no of insects in test arena, not on diet (C) / no of insects on diet (B): 50 beetles
Experimental: In this test 50 freshly hatched beetles were treated with FLON (IF 050 formulation) and PYQU (VVG 50 formulation). Using a turntable spray, 300 ppm of a 200 g ai/ha formulation were sprayed directly on the beetles. The control beetles (“check”) were sprayed with water. The petri dish was then placed in the test arena next to which was placed a diet situated 23 cm above ground. After a certain time periods shown below in the table, the number of beetles on different sites was counted: […]

N#CCNC(=O)c1cnccc1C(F)(F)F [Flonicamid, N-(cyanomethyl)-4-(trifluoromethyl)-3-pyridinecarboxamide]
BP80 (break point for 80% mortality) (Heliothis virescens): >200 ppm | BP80 (break point for 80% mortality) (Plutella xylostella): >200 ppm | BP80 (break point for 80% mortality) (Tetranychus urticae): >200 ppm | BP80 (break point for 80% mortality) (Cydia pomonella): >50 ppm | % reduction of damaged squares (Anthonomus grandis [1]; 2 days after 2nd application): 50% | % reduction of damaged squares (Anthonomus grandis [1]; 4 days after 4th application): 57% | % reduction of damaged squares (Anthonomus grandis [2]; 2 days after 2nd application): 67% | % reduction of damaged squares (Anthonomus grandis [2]; 5 days after 3rd application): 52% | % reduction of damaged squares (Anthonomus grandis [3]; 75 g ai/ha, 2 days after 4th application): 65% | % reduction of damaged squares (Anthonomus grandis [3]; 75 g ai/ha, 7 days after 4th application): 50% | % reduction of damaged squares (Anthonomus grandis [3]; 150 g ai/ha, 2 days after 4th application): 81% | % reduction of damaged squares (Anthonomus grandis [3]; 150 g ai/ha, 7 days after 4th application): 52% | immobility effect disappeared with time (rank order) (Anthonomus adults): PYQU>FLON | no of insects at infestation site (A) (Anthonomus adults; 3 hours): 37 | no of insects capable of leaving the infestation site (B) + (C) (Anthonomus adults; 3 hours): 13 | no of insects in test arena, not on diet (C) (Anthonomus adults; 3 hours): 11 | no of insects on diet (B) (Anthonomus adults; 3 hours): 2 | no of insects at infestation site (A) (Anthonomus adults; 6 hours): 44 | no of insects capable of leaving the infestation site (B) + (C) (Anthonomus adults; 6 hours): 6 | no of insects in test arena, not on diet (C) (Anthonomus adults; 6 hours): 3 | no of insects on diet (B) (Anthonomus adults; 6 hours): 3 | no of insects at infestation site (A) (Anthonomus adults; 24 hours): 37 | no of insects capable of leaving the infestation site (B) + (C) (Anthonomus adults; 24 hours): 13 | no of insects in test arena, not on diet (C) (Anthonomus adults; 24 hours): 6 | no of insects on diet (B) (Anthonomus adults; 24 hours): 7 | no of insects at infestation site (A) (Anthonomus adults; 32 hours): 21 | no of insects capable of leaving the infestation site (B) + (C) (Anthonomus adults; 32 hours): 29 | no of insects in test arena, not on diet (C) (Anthonomus adults; 32 hours): 3 | no of insects on diet (B) (Anthonomus adults; 32 hours): 26 | no of insects at infestation site (A) (Anthonomus adults; 48 hours): 14 | no of insects capable of leaving the infestation site (B) + (C) (Anthonomus adults; 48 hours): 36 | no of insects in test arena, not on diet (C) (Anthonomus adults; 48 hours): 6 | no of insects on diet (B) (Anthonomus adults; 48 hours): 30 | no of insects at infestation site (A) (Anthonomus adults; 52 hours): 10 | no of insects capable of leaving the infestation site (B) + (C) (Anthonomus adults; 52 hours): 40 | no of insects in test arena, not on diet (C) (Anthonomus adults; 52 hours): 3 | no of insects on diet (B) (Anthonomus adults; 52 hours): 37 | no of insects at infestation site (A) (Anthonomus adults; 72 hours): 9 | no of insects capable of leaving the infestation site (B) + (C) (Anthonomus adults; 72 hours): 41 | no of insects in test arena, not on diet (C) (Anthonomus adults; 72 hours): 7 | no of insects on diet (B) (Anthonomus adults; 72 hours): 34 | no of insects at infestation site (A) (Anthonomus adults; 78 hours): 5 | no of insects capable of leaving the infestation site (B) + (C) (Anthonomus adults; 78 hours): 45 | no of insects in test arena, not on diet (C) (Anthonomus adults; 78 hours): 6 | no of insects on diet (B) (Anthonomus adults; 78 hours): 39 | no of insects at infestation site (A) (Anthonomus adults; 144 hours): 15 | no of insects capable of leaving the infestation site (B) + (C) (Anthonomus adults; 144 hours): 35 | no of insects in test arena, not on diet (C) (Anthonomus adults; 144 hours): 3 | no of insects on diet (B) (Anthonomus adults; 144 hours): 32 | no of insects at infestation site (A) (Anthonomus adults; 150 hours): 5 | no of insects capable of leaving the infestation site (B) + (C) (Anthonomus adults; 150 hours): 45 | no of insects in test arena, not on diet (C) (Anthonomus adults; 150 hours): 1 | no of insects on diet (B) (Anthonomus adults; 150 hours): 44

CC(=O)N1C(=O)N(NCc2cccnc2)Cc2cc(C(F)(C(F)(F)F)C(F)(F)F)ccc21 [Pyrifluquinazon, 1-acetyl-3,4-dihydro-3-[(3-pyridinylmethyl)amino]-6-[1,2,2,2-tetrafluoro-1-(trifluoromethyl)ethyl]-2(1H)-quinazolinone]
BP80 (break point for 80% mortality) (Heliothis virescens): >200 ppm | BP80 (break point for 80% mortality) (Plutella xylostella): >200 ppm | BP80 (break point for 80% mortality) (Tetranychus urticae): >200 ppm | % reduction of damaged squares (Anthonomus grandis [3]; 100 g ai/ha, 2 days after 4th application): 77% | % reduction of damaged squares (Anthonomus grandis [3]; 100 g ai/ha, 7 days after 4th application): 37% | % reduction of damaged squares (Anthonomus grandis [3]; 200 g ai/ha, 2 days after 4th application): 85% | % reduction of damaged squares (Anthonomus grandis [3]; 200 g ai/ha, 7 days after 4th application): 48% | immobility effect disappeared with time (rank order) (Anthonomus adults): PYQU>FLON | no of insects at infestation site (A) (Anthonomus adults; 3 hours): 45 | no of insects capable of leaving the infestation site (B) + (C) (Anthonomus adults; 3 hours): 5 | no of insects in test arena, not on diet (C) (Anthonomus adults; 3 hours): 1 | no of insects on diet (B) (Anthonomus adults; 3 hours): 4 | no of insects at infestation site (A) (Anthonomus adults; 6 hours): 45 | no of insects capable of leaving the infestation site (B) + (C) (Anthonomus adults; 6 hours): 5 | no of insects in test arena, not on diet (C) (Anthonomus adults; 6 hours): 2 | no of insects on diet (B) (Anthonomus adults; 6 hours): 3 | no of insects at infestation site (A) (Anthonomus adults; 24 hours): 39 | no of insects capable of leaving the infestation site (B) + (C) (Anthonomus adults; 24 hours): 11 | no of insects in test arena, not on diet (C) (Anthonomus adults; 24 hours): 3 | no of insects on diet (B) (Anthonomus adults; 24 hours): 8 | no of insects at infestation site (A) (Anthonomus adults; 32 hours): 27 | no of insects capable of leaving the infestation site (B) + (C) (Anthonomus adults; 32 hours): 23 | no of insects in test arena, not on diet (C) (Anthonomus adults; 32 hours): 4 | no of insects on diet (B) (Anthonomus adults; 32 hours): 19 | no of insects at infestation site (A) (Anthonomus adults; 48 hours): 28 | no of insects capable of leaving the infestation site (B) + (C) (Anthonomus adults; 48 hours): 22 | no of insects in test arena, not on diet (C) (Anthonomus adults; 48 hours): 4 | no of insects on diet (B) (Anthonomus adults; 48 hours): 18 | no of insects at infestation site (A) (Anthonomus adults; 52 hours): 30 | no of insects capable of leaving the infestation site (B) + (C) (Anthonomus adults; 52 hours): 20 | no of insects in test arena, not on diet (C) (Anthonomus adults; 52 hours): 6 | no of insects on diet (B) (Anthonomus adults; 52 hours): 14 | no of insects at infestation site (A) (Anthonomus adults; 72 hours): 30 | no of insects capable of leaving the infestation site (B) + (C) (Anthonomus adults; 72 hours): 20 | no of insects in test arena, not on diet (C) (Anthonomus adults; 72 hours): 6 | no of insects on diet (B) (Anthonomus adults; 72 hours): 14 | no of insects at infestation site (A) (Anthonomus adults; 78 hours): 24 | no of insects capable of leaving the infestation site (B) + (C) (Anthonomus adults; 78 hours): 26 | no of insects in test arena, not on diet (C) (Anthonomus adults; 78 hours): 4 | no of insects on diet (B) (Anthonomus adults; 78 hours): 22 | no of insects at infestation site (A) (Anthonomus adults; 144 hours): 15 | no of insects capable of leaving the infestation site (B) + (C) (Anthonomus adults; 144 hours): 35 | no of insects in test arena, not on diet (C) (Anthonomus adults; 144 hours): 4 | no of insects on diet (B) (Anthonomus adults; 144 hours): 31 | no of insects at infestation site (A) (Anthonomus adults; 150 hours): 15 | no of insects capable of leaving the infestation site (B) + (C) (Anthonomus adults; 150 hours): 35 | no of insects in test arena, not on diet (C) (Anthonomus adults; 150 hours): 2 | no of insects on diet (B) (Anthonomus adults; 150 hours): 33
